Results reported in patent publication US20260184807A1, “Methods for Treating Rheumatoid Arthritis Using a Syndecan-1 Inhibitor or Syntenin-1 Inhibitor” (The United States Government as represented by the …, priority 2022, published 2026).

Experiments:
[1] = test system: RA ST explants; assay: Rheumatoid arthritis explants stimulated with Syntenin-1 (qRT-PCR, ELISA); assay type: cell-based, human; details: Syntenin-1 5000 ng/ml 6-8 h, mTOR1i 1 μM
Method: FIGS. 19A-R show Syntenin1-induced metabolic activity fine-tunes transcription of angiogenic and inflammatory factors in RA ST explants. […] RA STs were stimulated with 1000 ng/ml Syntenin-1 for 6-8 h. Synovial tissues were harvested for transcriptome analysis by qRT-PCR and supernatants were used for protein quantification by ELISA. The transcription level of JAG1 (FIG. 19F), Notch1 (FIG. 19G), VEGF (FIG. 19H), VEGFR1 (FIG. 19I), and RAPTOR (FIG. 19J) was quantified by real-time RT-PCR, n=6-8. RA explants were untreated or stimulated with 5000 ng/ml Syntenin-1 in the presence or absence of SDC1-Ab (1:100), HIF1αi (2 μM), or mTOR1i (IμM) for 6-8 h. The transcription levels of RAPTOR (FIG. 19K, n=3), VEGF (FIG. 19L, n=5), IL-1β (FIG. 19M, n=8), CCL5 (FIG. 19N, n=6), IL-6 (FIG. 19O, n=6), IL-8 (FIG. 19P, n=6), CCL2 (FIG. 19Q, n=8) were evaluated by qRT-PCR or ELISA. […] Data are presented as mean±SEM: significant differences were determined by the Mann-Whitney test, 2way ANOVA, or one-way ANOVA. *p<0.05, **p<0.01, ***p<0.001, ****p<0.0001.
RheumatoidArthritis Explants. RA ST (30 mg) was cut into small pieces to allow proper access to stimuli and were starved o/n in 0% FBS RPMI with or without SDC1-Ab (1:100), mTOR1i (1 μM), and HIF1αi ([…]). […] Tissues were harvested for transcriptome analysis and supernatants were used for protein quantification by ELISA.

[2] = test system: RA monocyte-differentiated MΦs; assay: CD14+CD86+GLUT1+ MΦ frequency by flow cytometry after Syntenin-1; assay type: cell-based, human; details: Syntenin-1 1000 ng/mL, 24 h; IL5Ra 2 μg/mL, PDZ1i 10 μM, mTORi 1 μM; FIGS. 3H, 3I
Method: (B, C) RA MΦs were treated with PBS (ctrl) or Syntenin-1 (1000 ng/mL) for 6 hours and transcription levels of HIF1α (n=10) (FIG. 3B). GLUT1, RAPTOR, HK2, PFK2, PDK1, PKM2 (FIG. 3C) were quantified by qRT-PCR (n=6). […] FIGS. 3H, 3I) after 24 hours impact of treatment was determined on CD14+CD86+ GLUT1+ frequency by flow cytometry (n=4-5). […] Data are presented as mean±SEM; significant differences were determined by Mann-Whitney test, Student's t-test, two-way-ANOVA, or one-way ANOVA. *p<0.05, **p<0.01, ***p<0.001, ****p<0.0001. ANOVA, analysis of variance.
Flow cytometry. Depending on the assay negatively selected human monocytes or human peripheral blood mononuclear cells from Rheumatoid Arthritis patients were stained with anti-CD14, anti-CD86, anti-CD206, anti-CD4 (BioLegend Inc.), or GLUT1 (Novus Biologicals) fluorescently labeled antibodies. Prior to intracellular staining, cells were stimulated with PMA (100 ng/ml) and ionomycin (1.5 μM; both Sigma-Aldrich) in the presence of Brefeldin A (eBioscience, San Diego, USA) for 3-4 h. To exclude dead cells, cells were stained by the ZombieViolet Fixable Viability Kit (BioLegend Inc.). […]
Syntenin-1 stimulation and inhibition. […] Cells were subsequently harvested in TRIzol reagent (Life Technologies) or RIPA buffer (Cell Signaling Technology) for mRNA quantification and western blot analysis; conditioned media was collected for ELISA.

With `CO[C@H]1C[C@@H]2CC[C@@H](C)[C@@](O)(O2)C(=O)C(=O)N2CCCC[C@H]2C(=O)O[C@H]([C@H](C)C[C@@H]2CC[C@@H](OCCO)[C@H](OC)C2)CC(=O)[C@H](C)/C=C(\C)[C@@H](O)[C@@H](OC)C(=O)[C@H](C)C[C@H](C)/C=C/C=C/C=C/1C` [mTORi, Everolimus] the “CCL2 transcription and TNF secretion” value ([1]; FIGS. 19Q-R) was “intercepted”, the “Syntenin-1-enriched RAPTOR expression” value ([1]; HIF1αi 2 μM, FIG. 19K) was “suppressed” and the “Syntenin-1 reconfiguration of naïve cells into RA CD14+CD86+GLUT1+MΦs” value [2] was “exclusively impaired”.
